Test results: PubChem BioAssay AID248 (DTP/NCI, 2004)
Values joined by “and” are separate entries in the source; they are usually repeats but may differ in a detail not shown here. Equal entries are not always repeated. Toxic doses and inconclusive results are not listed.

Tested on: L1210 leukemia ip in BDF1 mice, survival T/C
Assay: NCI In Vivo Anticancer Drug Screen. Data for tumor model L1210 Leukemia (intraperitoneal) in B6D2F1 (BDF1) mice
Settings: endpoint: mean survival time, higher = longer survival
Summary of the method: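 Ratio derived from survival: compound-dosed mice over vehicle-dosed mice, all bearing a transplantable tumor.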

[1] = dose: 100.0 mg/kg/injection, schedule: Q01DX009 (ip), vehicle: Klucel (hydroxypropylcellulose) (HPC)
[2] = dose: 200.0 mg/kg/injection, schedule: Q01DX009 (ip), vehicle: Klucel (hydroxypropylcellulose) (HPC)
[3] = dose: 400.0 mg/kg/injection, schedule: Q01DX009 (ip), vehicle: Klucel (hydroxypropylcellulose) (HPC)

`CCOC(=O)C(CC(=O)O)=C1c2ccccc2-c2ccccc21` was tested, and the T/C (dose: 100.0 mg/kg/injection, schedule: Q01DX001 (ip), vehicle: Klucel (hydroxypropylcellulose) (HPC)) was 100 % of control, the T/C [1] was 95 % of control and 102 % of control and the T/C (dose: 100.0 mg/kg/injection, schedule: Q04DX002 (ip), vehicle: Klucel (hydroxypropylcellulose) (HPC)) was 95 % of control and 102 % of control. The T/C (dose: 200.0 mg/kg/injection, schedule: Q01DX001 (ip), vehicle: Klucel (hydroxypropylcellulose) (HPC)) was 94 % of control, the T/C [2] was 95 % of control and 96 % of control and the T/C (dose: 200.0 mg/kg/injection, schedule: Q04DX002 (ip), vehicle: Klucel (hydroxypropylcellulose) (HPC)) was 96 % of control and 98 % of control.

For `N=C(N)SCCN1C(=O)c2ccccc2C1=O`, the T/C (dose: 100.0 mg/kg/injection, schedule: Q04DX003 (ip), vehicle: saline with Tween-80) was 103 % of control.

`CC1CCCC[N-]1.CC1CCCC[N-]1.N#C[S-].N#C[S-].[Cu]` (stereo not given) was tested, and the T/C (dose: 5.0 mg/kg/injection, schedule: Q01DX001 (ip), vehicle: saline) was 94 % of control, the T/C (dose: 10.0 mg/kg/injection, schedule: Q01DX001 (ip), vehicle: saline) was 86 % of control and the T/C (dose: 20.0 mg/kg/injection, schedule: Q01DX001 (ip), vehicle: saline) was 91 % of control. The T/C (dose: 40.0 mg/kg/injection, schedule: Q01DX001 (ip), vehicle: saline) was 100 % of control.

In the case of `CC(=O)Oc1ccc(OC(C)=O)c2c1CC(C)=C(C)C2`, the T/C (dose: 100.0 mg/kg/injection, schedule: Q01DX009 (ip), vehicle: saline) is reported as 95 % of control, the T/C (dose: 100.0 mg/kg/injection, schedule: Q04DX003 (ip), vehicle: saline) is reported as 97 % of control and the T/C (dose: 200.0 mg/kg/injection, schedule: Q01DX009 (ip), vehicle: saline) is reported as 90 % of control. The T/C (dose: 200.0 mg/kg/injection, schedule: Q04DX003 (ip), vehicle: saline) was 98 % of control, the T/C (dose: 400.0 mg/kg/injection, schedule: Q01DX009 (ip), vehicle: saline) was 92 % of control and the T/C (dose: 400.0 mg/kg/injection, schedule: Q04DX003 (ip), vehicle: saline) was 97 % of control.

With `CCC(C)c1ccccc1OC(=O)Nc1ccc(OC)cc1` (stereo not given) the T/C (dose: 50.0 mg/kg/injection, schedule: Q01DX009 (ip), vehicle: Klucel (hydroxypropylcellulose) (HPC)) was 105 % of control, the T/C [1] was 92 % of control and the T/C (dose: 100.0 mg/kg/injection, schedule: Q04DX003 (ip), vehicle: Klucel (hydroxypropylcellulose) (HPC)) was 96 % of control. The T/C [2] was 95 % of control, the T/C (dose: 200.0 mg/kg/injection, schedule: Q04DX003 (ip), vehicle: Klucel (hydroxypropylcellulose) (HPC)) was 94 % of control and the T/C (dose: 400.0 mg/kg/injection, schedule: Q04DX003 (ip), vehicle: Klucel (hydroxypropylcellulose) (HPC)) was 100 % of control.

`O=C(Nc1cccc(Cl)c1Cl)N1CCN(c2ccccc2)CC1` was tested, and the T/C [1] was 92 % of control, the T/C [2] was 96 % of control and the T/C [3] was 97 % of control.

`CC(/C=N/N/C(N)=N\N)=N\N/C(N)=N/N` was tested, and the T/C (dose: 15.0 mg/kg/injection, schedule: Q01DX Z (ip), vehicle: methylcellulose (MC)) was 105 % of control, the T/C (dose: 30.0 mg/kg/injection, schedule: Q01DX Z (ip), vehicle: methylcellulose (MC)) was 103 % of control and the T/C (dose: 60.0 mg/kg/injection, schedule: Q01DX Z (ip), vehicle: methylcellulose (MC)) was 98 % of control. The T/C (dose: 120.0 mg/kg/injection, schedule: Q01DX Z (ip), vehicle: methylcellulose (MC)) was 104 % of control and the T/C (dose: 240.0 mg/kg/injection, schedule: Q01DX Z (ip), vehicle: methylcellulose (MC)) was 98 % of control.

In the case of `C=CCn1c2ccccc2c2c(C)c3cnccc3c(C)c21`, the T/C (dose: 25.0 mg/kg/injection, schedule: Q01DX009 (ip), vehicle: saline with Tween-80) is reported as 97 % of control, the T/C (dose: 37.5 mg/kg/injection, schedule: Q04DX003 (ip), vehicle: saline) is reported as 111 % of control and the T/C (dose: 50.0 mg/kg/injection, schedule: Q01DX009 (ip), vehicle: saline with Tween-80) is reported as 102 % of control. For the same molecule, the T/C (dose: 50.0 mg/kg/injection, schedule: Q04DX003 (ip), vehicle: saline with Tween-80) was 119 % of control, the T/C (dose: 75.0 mg/kg/injection, schedule: Q01DX009 (ip), vehicle: saline with Tween-80) was 186 % of control and the T/C (dose: 75.0 mg/kg/injection, schedule: Q04DX003 (ip), vehicle: saline) was 163 % of control. The T/C (dose: 100.0 mg/kg/injection, schedule: Q01DX009 (ip), vehicle: saline with Tween-80) was 111 % of control, the T/C (dose: 125.0 mg/kg/injection, schedule: Q04DX003 (ip), vehicle: saline with Tween-80) was 184 % of control and the T/C (dose: 150.0 mg/kg/injection, schedule: Q01DX009 (ip), vehicle: saline with Tween-80) was 172 % of control. For the same molecule, the T/C (dose: 300.0 mg/kg/injection, schedule: Q04DX003 (ip), vehicle: saline) was 156 % of control.

`Brc1cccc2c(I)cccc12` was tested, and the T/C (dose: 100.0 mg/kg/injection, schedule: Q01DX001 (ip), vehicle: carboxymethylcellulose (CMC)) was 95 % of control, the T/C (dose: 200.0 mg/kg/injection, schedule: Q01DX001 (ip), vehicle: carboxymethylcellulose (CMC)) was 98 % of control and the T/C (dose: 400.0 mg/kg/injection, schedule: Q01DX001 (ip), vehicle: carboxymethylcellulose (CMC)) was 92 % of control.

With `Cc1ccc(S(=O)(=O)N=S2CCCC2)cc1` the T/C [1] was 97 % of control, the T/C [2] was 102 % of control and the T/C [3] was 102 % of control.

In the case of `C1CSC(SCCSC2=NCCS2)=N1`, the T/C (dose: 62.5 mg/kg/injection, schedule: Q01DX009 (ip), vehicle: carboxymethylcellulose (CMC)) is reported as 89 % of control, the T/C (dose: 125.0 mg/kg/injection, schedule: Q01DX009 (ip), vehicle: carboxymethylcellulose (CMC)) is reported as 100 % of control and the T/C (dose: 250.0 mg/kg/injection, schedule: Q01DX009 (ip), vehicle: carboxymethylcellulose (CMC)) is reported as 96 % of control.
